In patent US8445474B2 (Knopp Neurosciences, Inc., priority 2006, dated 2013):
Where two headings read alike, the source gives them in different places.

What was measured:
rodents [1] = details: single oral dose, and above; cited from earlier work
in vivo = details: male, beagle, dog
Experimental: (§1) Doses were administered orally by gavage and clinical observations were taken continuously following dosing: hourly for the first four hours, and then twice daily cage-side observations for the duration of the inter-dose or post-dose interval. Observations were made of clinical signs, mortality, injury and availability of food and water. Animals were fasted for 24 hr prior to dosing. Dogs in each group were exposed to only one drug, or the combination; each dose was administered only once, with a subsequent dose administered after a recovery period of 4 days.

[2] = Dissolution of exploratory combination capsules in simulated gastric fluid (SGF), chiral HPLC; format: physicochemical; details: for Average Concentrations of the enantiomer, Experiments SGF (1) and SGF (2) / Concentration of the enantiomer in SGF (1) Vessel / Concentration of the enantiomer in SGF (2) Vessel: combination capsule in 10 mL SGF pH 1.2
Experimental: Drug Formulation. […] Normal phase, chiral HPLC was used for monitoring the release of R(+) pramipexole and S(−) pramipexole in simulated gastric fluid (SGF).
Dissolution Study. SGF (pH=1.2) was prepared by diluting 1 g of sodium chloride and 7 mL of concentrated HCl to 1 L with HPLC grade water. The dissolution experiment was run as follows: an exploratory combination capsule was placed in 10 mL of SGF and shaken under ambient conditions at 600 RPM for 60 minutes. Aliquots of 100 μL were pulled from the same sample vessel at various time points. The 100 μL samples of SGF solution were evaporated using a nitrogen bleed and heat and the residues were dissolved in the HPLC diluent and filtered through 0.45 μm syringe filters. […] This experiment was performed in duplicate (experiment numbers SGF (1) (see Table 4) and SGF (2) (see Table 5)) and the results are also provided in average values (see Table 6). The tables and figures below summarize the results from these experiments.

dogs = details: single oral dose, and above; cited from earlier work
monkeys = details: single oral dose; cited from earlier work
[3] = biological target: human cloned dopamine receptor D5 (Homo sapiens, UniProt P21918); details: historic data; cited from earlier work
Chain of human cloned dopamine receptor D5 (P21918 whole entry): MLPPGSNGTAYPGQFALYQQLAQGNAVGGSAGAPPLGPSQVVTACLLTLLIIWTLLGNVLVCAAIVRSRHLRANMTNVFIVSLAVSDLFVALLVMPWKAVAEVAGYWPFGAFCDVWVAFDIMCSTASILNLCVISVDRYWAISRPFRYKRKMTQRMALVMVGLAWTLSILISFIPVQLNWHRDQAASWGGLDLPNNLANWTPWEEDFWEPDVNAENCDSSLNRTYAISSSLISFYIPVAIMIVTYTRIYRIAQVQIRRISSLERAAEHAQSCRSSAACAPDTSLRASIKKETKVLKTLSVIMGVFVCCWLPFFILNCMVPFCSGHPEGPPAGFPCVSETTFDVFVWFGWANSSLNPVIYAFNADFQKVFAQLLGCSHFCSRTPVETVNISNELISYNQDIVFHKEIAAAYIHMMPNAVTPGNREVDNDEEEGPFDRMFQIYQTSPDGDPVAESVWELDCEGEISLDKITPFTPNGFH

rodents [4] = system: rodents
human subjects = details: cited from earlier work
[5] = 4320 minutes, stored benchtop in clear vial
[6] = male, beagle, dog, in vivo, 1 study day
[7] = male, beagle, dog, in vivo, 8 study day
[8] = non-naïve male beagle dogs, single oral dose

Experimental for male beagle dogs: as §1

CCCN[C@H]1CCc2nc(N)sc2C1 [S(−) pramipexole]
doses at which deaths occurred (rodents [1]): 70000 to 105000 µg/kg
MTD at 4 days (in vivo): 4.2 µg/kg
Average Concentrations of the enantiomer, Experiments SGF (1) and SGF (2) ([2]; 3 minutes): 0 mg/mL
Concentration of the enantiomer in SGF (1) Vessel ([2]; 3 minutes): 0 ng/mL
Concentration of the enantiomer in SGF (2) Vessel ([2]; 3 minutes): 0 ng/mL
Average Concentrations of the enantiomer, Experiments SGF (1) and SGF (2) ([2]; 4 minutes): 0 mg/mL
Concentration of the enantiomer in SGF (1) Vessel ([2]; 4 minutes): 0 ng/mL
Concentration of the enantiomer in SGF (2) Vessel ([2]; 4 minutes): 0 ng/mL
Average Concentrations of the enantiomer, Experiments SGF (1) and SGF (2) ([2]; 6 minutes): 0 mg/mL
Concentration of the enantiomer in SGF (1) Vessel ([2]; 6 minutes): 0 ng/mL
Concentration of the enantiomer in SGF (2) Vessel ([2]; 6 minutes): 0 ng/mL
Average Concentrations of the enantiomer, Experiments SGF (1) and SGF (2) ([2]; 8 minutes): 0 mg/mL
Concentration of the enantiomer in SGF (1) Vessel ([2]; 8 minutes): 0 ng/mL
Concentration of the enantiomer in SGF (2) Vessel ([2]; 8 minutes): 0 ng/mL
Average Concentrations of the enantiomer, Experiments SGF (1) and SGF (2) ([2]; 10 minutes): 0.003489 mg/mL
Concentration of the enantiomer in SGF (1) Vessel ([2]; 10 minutes): 6978 ng/mL
Concentration of the enantiomer in SGF (2) Vessel ([2]; 10 minutes): 0 ng/mL
Average Concentrations of the enantiomer, Experiments SGF (1) and SGF (2) ([2]; 11 minutes): 0.00738 mg/mL
Concentration of the enantiomer in SGF (1) Vessel ([2]; 11 minutes): 8956 ng/mL
Concentration of the enantiomer in SGF (2) Vessel ([2]; 11 minutes): 5803 ng/mL
Average Concentrations of the enantiomer, Experiments SGF (1) and SGF (2) ([2]; 12 minutes): 0.009645 mg/mL
Concentration of the enantiomer in SGF (1) Vessel ([2]; 12 minutes): 10830 ng/mL
Concentration of the enantiomer in SGF (2) Vessel ([2]; 12 minutes): 8460 ng/mL
Average Concentrations of the enantiomer, Experiments SGF (1) and SGF (2) ([2]; 14 minutes): 0.015 mg/mL
Concentration of the enantiomer in SGF (1) Vessel ([2]; 14 minutes): 15340 ng/mL
Concentration of the enantiomer in SGF (2) Vessel ([2]; 14 minutes): 14660 ng/mL
Average Concentrations of the enantiomer, Experiments SGF (1) and SGF (2) ([2]; 15 minutes): 0.01769 mg/mL
Concentration of the enantiomer in SGF (1) Vessel ([2]; 15 minutes): 17690 ng/mL
Concentration of the enantiomer in SGF (2) Vessel ([2]; 15 minutes): 17700 ng/mL
Average Concentrations of the enantiomer, Experiments SGF (1) and SGF (2) ([2]; 17 minutes): 0.02176 mg/mL
Concentration of the enantiomer in SGF (1) Vessel ([2]; 17 minutes): 21570 ng/mL
Concentration of the enantiomer in SGF (2) Vessel ([2]; 17 minutes): 21960 ng/mL
Average Concentrations of the enantiomer, Experiments SGF (1) and SGF (2) ([2]; 18 minutes): 0.02294 mg/mL
Concentration of the enantiomer in SGF (1) Vessel ([2]; 18 minutes): 22230 ng/mL
Concentration of the enantiomer in SGF (2) Vessel ([2]; 18 minutes): 23650 ng/mL
Average Concentrations of the enantiomer, Experiments SGF (1) and SGF (2) ([2]; 20 minutes): 0.028 mg/mL
Concentration of the enantiomer in SGF (1) Vessel ([2]; 20 minutes): 27330 ng/mL
Concentration of the enantiomer in SGF (2) Vessel ([2]; 20 minutes): 28670 ng/mL
Average Concentrations of the enantiomer, Experiments SGF (1) and SGF (2) ([2]; 25 minutes): 0.03742 mg/mL
Concentration of the enantiomer in SGF (1) Vessel ([2]; 25 minutes): 37640 ng/mL
Concentration of the enantiomer in SGF (2) Vessel ([2]; 25 minutes): 37210 ng/mL
Average Concentrations of the enantiomer, Experiments SGF (1) and SGF (2) ([2]; 30 minutes): 0.04566 mg/mL
Concentration of the enantiomer in SGF (1) Vessel ([2]; 30 minutes): 48900 ng/mL
Concentration of the enantiomer in SGF (2) Vessel ([2]; 30 minutes): 42420 ng/mL
Average Concentrations of the enantiomer, Experiments SGF (1) and SGF (2) ([2]; 60 minutes): 0.05654 mg/mL
Concentration of the enantiomer in SGF (1) Vessel ([2]; 60 minutes): 51970 ng/mL
Concentration of the enantiomer in SGF (2) Vessel ([2]; 60 minutes): 61100 ng/mL
Average Concentrations of the enantiomer, Experiments SGF (1) and SGF (2) [2, 5]: 0.09309 mg/mL
Concentration of the enantiomer in SGF (1) Vessel [2, 5]: 93670 ng/mL
Concentration of the enantiomer in SGF (2) Vessel [2, 5]: 92500 ng/mL
course of release from the capsule ([2]; SGF pH 1.2, 60 minutes): did not go to completion after one hour
dose at which vomiting occurred (dogs): ≥ 0.7 µg/kg
human dose equivalent to dog MTD (male beagle dogs; 70 kg individual): 0.30 mg
human dose equivalent to dog NOAEL (male beagle dogs; 70 kg individual): 0.05 mg
human dose equivalent to dog NOAEL (male beagle dogs; human equivalent): 0.7 µg/kg
Feces mucoid (animals affected/total) (male beagle dogs; male, beagle, dog, in vivo): 0/4
Feces soft (animals affected/total) (male beagle dogs; male, beagle, dog, in vivo): 0/4
Feces watery (animals affected/total) (male beagle dogs; male, beagle, dog, in vivo): 0/4
Lacrimation (animals affected/total) (male beagle dogs; male, beagle, dog, in vivo): 0/4
Pupils dilated (animals affected/total) (male beagle dogs; male, beagle, dog, in vivo): 0/4
Skin warm to touch (animals affected/total) (male beagle dogs; male, beagle, dog, in vivo): 0/4
Activity decreased (animals affected/total) (male beagle dogs; [6]): 3/4
Convulsions-clonic (animals affected/total) (male beagle dogs; [6]): 0/4
Emesis (animals affected/total) (male beagle dogs; [6]): 3/4
Salivation (animals affected/total) (male beagle dogs; [6]): 0/4
Tremors (animals affected/total) (male beagle dogs; [6]): 1/4
Activity decreased (animals affected/total) (male beagle dogs; [7]): 0/4
Emesis (animals affected/total) (male beagle dogs; [7]): 0/4
Tremors (animals affected/total) (male beagle dogs; [7]): 0/4
MTD (male beagle dogs; [8]): 7.5 µg/kg
NOAEL (male beagle dogs; [8]): 1.25 µg/kg
dose at which major excitation was displayed (monkeys): 3500 µg/kg
Ki [3]: > 50 µM
human dose equivalent to rodent lethal dose (rodents [4]; human equivalent): 7000 to 12000 µg/kg
human dose equivalent to rodent lethal dose (rodents [4]; rodents, in vivo): 500 to 850 mg
dose shown to cause somnolence (human subjects): 1.5 mg
initial, single doses not tolerated (human subjects): greater than 0.20 milligrams
